Test [1] has as its system OVA-sensitized C57BL/6J mice. The test is described as follows: OVA-sensitized murine model of asthma (lung histology). The test is classed as in vivo, mouse. The conditions noted are these: KYC 0.3 mg/kg every other day, 5 treatments. From the text:
Murine Model of Experimentally-Induced Asthma. C57BL/6J mice (12-14 wk old) from Jackson Laboratory (Bar Harbor, Me.) were housed in sterile autoclavable microisolation cages and fed standard laboratory mouse chow and water ad libitum. All protocols were approved by the Institutional Animal Care and Use Committee (IACUC) of the Medical College of Wisconsin.
C57BL/6J mice were divided into three groups; a control group (Control), an ovalbumin (OVA)-sensitized group and an OVA-sensitized group treated with KYC. OVA sensitization was achieved using a modification of a protocol previously described by de Siqueira et al^15 (FIG. 1). […] When mice inhale aerosolized OVA, robust allergic responses are routinely observed.
Briefly, on day one, mice were anesthetized (halothane; Halocarbon Laboratories, River Edge, N.J.) and a heat-denatured OVA fragment (˜80 mg, 5×2×2 mm) was implanted subcutaneously in the dorsal aspect of the neck. The incision was closed with stainless steel clips and the mouse was allowed to recover. Implantation of the heat-denatured OVA fragment initiates sensitization. On day fifteen, the implanted mice were exposed to aerosolized OVA (6% in PBS) for 30 minutes every other day for ten days. Twenty-four hours after the last OVA challenge, the mice were deeply anesthetized (halothane), sacrificed by exsanguination and the lungs removed for analysis. […]

The subject of the next test is C57BL/6J mice. The test can be described thus: Pulmonary retention of Q-dot labeled EMPs (acute lung injury). The class given is in vivo, mouse. The conditions noted are these: pretreatment and treatment with KYC. On the procedure:
KYC Inhibits Acute Lung Injury. Inflammation and sepsis induce the release of endothelial cell microparticles (EMPs). Increased production of EMPs is hypothesized to play a causal role in the mechanisms mediating acute lung injury (ALI). To test this hypothesis, the inventors incubated human umbilical vein endothelial cells with PAI-1, which is well-recognized for inducing endothelial cells to generate EMPs. The EMPs were collected by ultracentrifugation, resuspended in physiological saline solution and then labeled with Q-dots. The Q-dot labeled EMPs were counted and then injected into C57BL/6J mice to achieve a final concentration of 100,000 EMPs/mL of blood. Mice were pretreated with phosphate buffered saline (FIG. 6) or KYC and then were injected with Q-dot labeled EMPs alone or Q-dot labeled EMPs plus KYC (FIG. 6).

A further test deals with SCD mice. The test is described as follows: Vasodilatation of pressurized facialis arteries from SCD mice treated in vivo. Set-up: species or system mouse. The note with it: KYC, three weeks. How it is done:
Murine Model of Sickle Cell Disease. Mice treated with KYC in vivo. SCD mice were treated with KYC (intraperitoneal injection: IP 0.3 mg/kg/d) or with PBS (IP 100 μL) for 3 weeks. Anesthesia was induced with Ketamine (100 mg/kg)+Xylazine (10 mg/kg) cocktail (ip) and then sacrificed by exsanguination. Facialis arteries were atraumatically dissected and maintained in cooled MOPS solution (in mM: NaCl 145, KCL 4.7, CaCl2 2, NaH2PO4 1.2, MgSO4, 1.2, pyruvate 2, EDTA 0.02, MOPS 3.0, and glucose 5.0, at pH 7.4). Vessels were then submerged in a MOPS bath, mounted on MOPS-containing glass capillary tubes, internally pressurized (60 mmHg), and warmed to 37° C. Internal vascular diameters were measured with a calibrated video-microscope (Boeckeler). After the vessel was allowed to acclimate to 37° C. (approximately 30 min), the diameter was measured and recorded (Dmax). […] A control dose-response curve using acetylcholine (ACh, 10^−7-10^−4 M) was performed and vessel diameter recorded. […] Vasodilation to papaverine ([…]) was determined after all treatments to ensure smooth muscle viability. Vasodilation was calculated as a percent of maximal vessel diameter change.
Vasodilatation. […] Physiological responses to increasing concentrations of acetylcholine (ACh) were determined by videomicroscopy as previously described.

Residues, ends and D or L forms follow the SMILES beside them.

As to `CC(=O)N[C@@H](CCCCN)C(=O)N[C@@H](Cc1ccc(O)cc1)C(=O)N[C@@H](CS)C(N)=O` [KYC, N-acetyl Lysyltyrosylcysteine Amide] (Ac-Lys-Tyr-Cys-NH2), the “Eosinophil infiltration in the lungs (in words)” value in test [1] (H&E) is “markedly reduce eosinophil infiltration to essentially control levels”. In addition, the “Collagen deposition in the lungs (in words)” value in test [1] (trichrome) was “markedly reduces collagen deposition to control levels”. Moreover, the “Pulmonary retention of Q-dot labeled EMPs (in words)” value with C57BL/6J mice is on record as “dramatically decreases”. Further, the “Endothelium- and eNOS-dependent vasodilatation (in words)” value in the test on SCD mice is “dramatically increases”.

The values are drawn from patent US8937039B2, “Peptide-based peroxidase inhibitors and methods of using same” (The Medical College of Wisconsin, Inc., priority 2009, dated 2015).
